From ChEMBL document CHEMBL1141425, “Cytotoxic clerodane diterpenoids and their hydrolysis products from Casearia nigrescens from the rainforest of Madagascar” (J Nat Prod, 2007)
pIC50: −log10 of the molar value.

These compounds were tested on A2780 (assay: Cytotoxicity against human A2780 cells).
Type: cell-based

SMILES | pIC50
C=CC(=C)CC[C@]1(C)[C@H](C)[C@@H](OC(C)=O)[C@H](O)[C@@]2(C=O)C(C=O)=C[C@H](OC(=O)CCC)C[C@@H]12 | 5.46
C=CC(=C)CC[C@]1(C)[C@H](C)[C@@H](OC(C)=O)[C@H](O)[C@@]23C(=C[C@H](OC(=O)CCC)C[C@@H]12)[C@@H](OC(C)=O)O[C@H]3OC(C)=O [CASEANIGRESCEN A] | 5.85
C=CC(=C)CC[C@]1(C)[C@H](C)[C@@H](O)[C@H](O)[C@@]23C(=C[C@H](OC(=O)CCC)C[C@@H]12)[C@@H](OC(C)=O)O[C@H]3OC(C)=O [CASEANIGRESCEN B] | 6.08
C=CC(=C)CC[C@]1(C)[C@H](C)[C@@H](O)[C@H](OC(C)=O)[C@@]23C(=C[C@H](OC(=O)CCC)C[C@@H]12)[C@@H](OC(C)=O)O[C@H]3OC(C)=O [CASEANIGRESCEN C] | 6.00
C=CC(=C)CC[C@]1(C)[C@H](C)C[C@H](O)[C@@]2(C=O)C(C=O)=C[C@H](OC(=O)CCC)C[C@@H]12 [CASEANIGRESCEN D2] | 5.82
C=CC(=C)CC[C@]1(C)[C@H](C)C[C@H](O)[C@@]23C(=C[C@H](OC(=O)CCC)C[C@@H]12)[C@@H](OC(C)=O)O[C@H]3OC(C)=O [CASEANIGRESCEN D] | 6.00
